Test results as given in patent publication US6989371B1, “Bombesin analogs for treatment of cancer” (Dabur Research Foundation, priority 1996, dated 2006).
Non-standard residues stand in square brackets, D forms with d. Residues, ends and D or L forms follow the SMILES beside them. Aib = CC(C)(N)C(=O)O

Assays:
[1] = system: A549 (non small lung cell); experiment: two day MTT cytotoxicity assay (Example 12); type: cell-based, human
Protocol: (§1) The cytoxicity of the peptide analog was carried out by two day MTT [3-(4,5-dimethylthiazol-2-yl)-2,5-diphenyl tetrazolium bromide]assay. MTT assay is based on the principle of uptake of MTT, a tetrazolium salt, by metabolically active cells where it is metabolized by active mitochondria into a blue colored formazon product, which can be read spectrometrically (J. of Immunological Methods 65: 55–63, 1983). To prepare the MTT stock solution needed, MTT was dissolved in phosphate buffered saline with a pH of 7.4 to obtain an MTT concentration of 5 mg/ml; the resulting mixture was filtered through a 0.22 micron filter to sterilize and remove a small amount of insoluble residue. This filtered mixture was the MTT stock solution.
(§2) Briefly, for each tumor type, 10,000 cells were seeded in 96-well tissue culture plate and incubated with each peptide concentration individually in a CO2 incubator for 48 hrs. The peptide analog at different concentrations was added once every 24 hrs during the incubation period. Control cultures, which were not treated with the peptide was similarly incubated. The assay was terminated by adding 100 μg (20 μl) of MTT to each well, incubating for three hours, decanting supernatant and finally adding 150 μl of dimethylsulphoxide to each well to dissolve the formazon. The plates were incubated for 15 minutes at 37° C. and read spectrophotometrically at 540 nm; and cytotoxicity percentage was calculated by following formula: • Cytotoxicity Percentage=100×[1−X/R1], • where X=(absorbance of the treated sample at 540 nm-absorbance of a blank at 540 nn) and • R1=(absorbance of the untreated control at 540 nm)—(absorbance of the blank at 540 nm).
(§3) Thus in each of the MTT cytotoxicity assay the percentage was calculated according to the above formula and was based on the proliferation of the untreated controls, the value of which was considered as 100°0.
(§4) The biological activity of synthesized peptide SEQ ID NO:3 was tested on different human tumor cell lines such as HT-29 & PTC (colon), A549 (non small lung cell), KB (oral squamous cell), MCF7 & MDA.MB.453 (Breast), HuTu80 (duodenum), PA-1 (ovary), MOLT-4 (leukemia) and MlAPaCa2 (Pancreas) at various molar concentrations.

HT-29 (colon) = experiment: two day MTT cytotoxicity assay (Example 12); type: cell-based, human
Protocol: as §1, §2, §3, §4

HuTu80 (duodenum) = experiment: two day MTT cytotoxicity assay (Example 12); type: cell-based, human
Protocol: as §1, §2, §3, §4

KB (oral squamous cell) = experiment: two day MTT cytotoxicity assay (Example 12); type: cell-based, human; settings: 48 hrs
Protocol: as §1, §2, §3, §4

MCF7 (Breast) = experiment: two day MTT cytotoxicity assay (Example 12); type: cell-based, human
Protocol: as §1, §2, §3, §4

MDA.MB.453 (Breast) = experiment: two day MTT cytotoxicity assay (Example 12); type: cell-based, human
Protocol: as §1, §2, §3, §4

MOLT-4 (leukemia) = experiment: two day MTT cytotoxicity assay (Example 12); type: cell-based, human
Protocol: as §1, §2, §3, §4

MlAPaCa2 (Pancreas) = experiment: two day MTT cytotoxicity assay (Example 12); type: cell-based, human
Protocol: as §1, §2, §3, §4

PA-1 (ovary) = experiment: two day MTT cytotoxicity assay (Example 12); type: cell-based, human
Protocol: as §1, §2, §3, §4

PTC (colon) = experiment: two day MTT cytotoxicity assay (Example 12); type: cell-based, human; settings: 48 hrs
Protocol: as §1, §2, §3, §4

[2] = system: MCF-7 MIII human breast cancer cell line xenografts; settings: MCF-7 MIII xenografts, female athymic nude mice, after 2 weeks of treatment, alone or in combination with SB-75; cited from earlier work
[3] = system: human gastric cancer cell line Hs746T xenografts; settings: nude mice bearing Hs746T xenografts; cited from earlier work
intact SCLC cells = settings: 37° C., RPMI medium, 0–1080 minutes; cited from earlier work
SCLC xenograft = settings: in vivo; cited from earlier work

In the case of CC(C)C[C@H](NC(=O)[C@H](Cc1c[nH]cn1)NC(=O)C(C)(C)NC(=O)[C@@H](NC(=O)[C@H](C)NC(=O)[C@H](Cc1c[nH]c2ccccc12)NC(=O)[C@H](CCC(N)=O)NC(=O)[C@H](N)Cc1ccccc1)C(C)C)C(N)=O [SEQ ID NO: 3, D-Phe-Gln-Trp-Ala-Val-Aib-His-Leu-NH2] (H-[dF]QWAV[Aib]HL-NH2; N-terminus assumed), the Percentage cytotoxicity ([1]; A549, 10 pM, 48 hrs) is reported as 30.5 ± 3.5%, the Percentage cytotoxicity ([1]; A549, 100 pM, 48 hrs) is reported as 25.2 ± 3.5% and the Percentage cytotoxicity ([1]; A549, 10 nM, 48 hrs) is reported as 32.2 ± 5.5%. It also gave a Percentage cytotoxicity ([1]; A549, 100 nM, 48 hrs) of 23.6 ± 4.5%, a Percentage cytotoxicity ([1]; A549, 1 μM, 48 hrs) of 30.7 ± 6.5% and a Percentage cytotoxicity ([1]; A549, 48 hrs) of 32.4 ± 4.5%. For the same compound, the Percentage cytotoxicity (HT-29 (colon); HT29, 10 pM, 48 hrs) was 18.7 ± 4.5%, the Percentage cytotoxicity (HT-29 (colon); HT29, 100 pM, 48 hrs) was 19.9 ± 5.5% and the Percentage cytotoxicity (HT-29 (colon); HT29, 10 nM, 48 hrs) was 11.8 ± 5.0%. The Percentage cytotoxicity (HT-29 (colon); HT29, 100 nM, 48 hrs) was 17.8 ± 4.5%, the Percentage cytotoxicity (HT-29 (colon); HT29, 1 μM, 48 hrs) was 25.4 ± 5.5% and the Percentage cytotoxicity (HT-29 (colon); HT29, 48 hrs) was 20.3 ± 4.5%. It also gave a Percentage cytotoxicity (HuTu80 (duodenum); HuTu80, 10 pM, 48 hrs) of 10.3 ± 3.5%, a Percentage cytotoxicity (HuTu80 (duodenum); HuTu80, 100 pM, 48 hrs) of 14.7 ± 4.2% and a Percentage cytotoxicity (HuTu80 (duodenum); HuTu80, 10 nM, 48 hrs) of 14.3 ± 3.5%. It also gave a Percentage cytotoxicity (HuTu80 (duodenum); HuTu80, 100 nM, 48 hrs) of 15.5 ± 4.7%, a Percentage cytotoxicity (HuTu80 (duodenum); HuTu80, 1 μM, 48 hrs) of 12.2 ± 4.0% and a Percentage cytotoxicity (HuTu80 (duodenum); HuTu80, 48 hrs) of 13.3 ± 4.0%. It also gave a Percentage cytotoxicity (KB (oral squamous cell); 10 pM) of 40.9 ± 5.5%, a Percentage cytotoxicity (KB (oral squamous cell); 100 pM) of 26.4 ± 4.5% and a Percentage cytotoxicity (KB (oral squamous cell); 10 nM) of 30.9 ± 5.5%. The Percentage cytotoxicity (KB (oral squamous cell); 100 nM) was 31.6 ± 6.5%, the Percentage cytotoxicity (KB (oral squamous cell); 1 μM) was 32.1 ± 5.0% and the Percentage cytotoxicity (KB (oral squamous cell)) was 30.4 ± 6.5%. For the same compound, the Percentage cytotoxicity (MCF7 (Breast); MCF 7, 10 pM, 48 hrs) was 39.33 ± 2.6%, the Percentage cytotoxicity (MCF7 (Breast); MCF 7, 100 pM, 48 hrs) was 38.95 ± 4.5% and the Percentage cytotoxicity (MCF7 (Breast); MCF 7, 10 nM, 48 hrs) was 24.35 ± 5%. The Percentage cytotoxicity (MCF7 (Breast); MCF 7, 100 nM, 48 hrs) was “Nil”, the Percentage cytotoxicity (MCF7 (Breast); MCF 7, 1 μM, 48 hrs) was “Nil” and the Percentage cytotoxicity (MCF7 (Breast); MCF 7, 48 hrs) was 30.68 ± 6%. The Percentage cytotoxicity (MDA.MB.453 (Breast); MDA.MB.453, 10 pM, 48 hrs) was 49.5 ± 4.2%, the Percentage cytotoxicity (MDA.MB.453 (Breast); MDA.MB.453, 100 pM, 48 hrs) was 25.5 ± 2.9% and the Percentage cytotoxicity (MDA.MB.453 (Breast); MDA.MB.453, 10 nM, 48 hrs) was “Nil”. The Percentage cytotoxicity (MDA.MB.453 (Breast); MDA.MB.453, 100 nM, 48 hrs) was 11.2 ± 3.1%, the Percentage cytotoxicity (MDA.MB.453 (Breast); MDA.MB.453, 1 μM, 48 hrs) was 5.6 ± 3.5% and the Percentage cytotoxicity (MDA.MB.453 (Breast); MDA.MB.453, 48 hrs) was 9.6 ± 1.9%. The Percentage cytotoxicity (MOLT-4 (leukemia); MOLT-4, 10 pM, 48 hrs) was 49.9 ± 4.1%, the Percentage cytotoxicity (MOLT-4 (leukemia); MOLT-4, 100 pM, 48 hrs) was 15.9 ± 3.0% and the Percentage cytotoxicity (MOLT-4 (leukemia); MOLT-4, 10 nM, 48 hrs) was “Nil”. It also gave a Percentage cytotoxicity (MOLT-4 (leukemia); MOLT-4, 100 nM, 48 hrs) of 1.4 ± 1.0%, a Percentage cytotoxicity (MOLT-4 (leukemia); MOLT-4, 1 μM, 48 hrs) of 9.0 ± 1.2% and a Percentage cytotoxicity (MOLT-4 (leukemia); MOLT-4, 48 hrs) of 1.0 ± 0.4%. For the same compound, the Percentage cytotoxicity (MlAPaCa2 (Pancreas); MIAPaCa2, 10 pM, 48 hrs) was 27.4 ± 4.5%, the Percentage cytotoxicity (MlAPaCa2 (Pancreas); MIAPaCa2, 100 pM, 48 hrs) was 28.2 ± 4.5% and the Percentage cytotoxicity (MlAPaCa2 (Pancreas); MIAPaCa2, 10 nM, 48 hrs) was 33.2 ± 6.7%. It also gave a Percentage cytotoxicity (MlAPaCa2 (Pancreas); MIAPaCa2, 100 nM, 48 hrs) of 30.3 ± 4.2%, a Percentage cytotoxicity (MlAPaCa2 (Pancreas); MIAPaCa2, 1 μM, 48 hrs) of 33.3 ± 4.5% and a Percentage cytotoxicity (MlAPaCa2 (Pancreas); MIAPaCa2, 48 hrs) of 36.4 ± 0.5%. The Percentage cytotoxicity (PA-1 (ovary); PA-1, 10 pM, 48 hrs) was 37.7 ± 3.9%, the Percentage cytotoxicity (PA-1 (ovary); PA-1, 100 pM, 48 hrs) was 40.1 ± 6.2% and the Percentage cytotoxicity (PA-1 (ovary); PA-1, 10 nM, 48 hrs) was 25.4 ± 4.2%. The Percentage cytotoxicity (PA-1 (ovary); PA-1, 100 nM, 48 hrs) was 34.2 ± 5.8%, the Percentage cytotoxicity (PA-1 (ovary); PA-1, 1 μM, 48 hrs) was 31.2 ± 5.1% and the Percentage cytotoxicity (PA-1 (ovary); PA-1, 48 hrs) was 36.1 ± 6.1%. For the same compound, the Percentage cytotoxicity (PTC (colon); 10 pM) was 80.0 ± 7.1%, the Percentage cytotoxicity (PTC (colon); 100 pM) was 26.5 ± 3.8% and the Percentage cytotoxicity (PTC (colon); 10 nM) was 27.7 ± 3.6%. The Percentage cytotoxicity (PTC (colon); 100 nM) was 27.7 ± 2.8%, the Percentage cytotoxicity (PTC (colon); 1 μM) was 17.9 ± 2.5% and the Percentage cytotoxicity (PTC (colon)) was 23.8 ± 2.8%.

For “(DTpi6, Leu3, psi[CH2NH]—Leu14) bombesin (6–14) [RC-3095]”, the tumor volume [2] is given as “significant inhibition of tumor volume” and the tumor growth [3] is given as “effectively inhibited tumor growth”.

For [Psi 13, 14] Bombesin, the “TI/2 (stability to metabolic enzymes)” value (intact SCLC cells) is given as 646 min and the SCLC xenograft formation (SCLC xenograft) is given as “inhibited SCLC xenograft formation in vivo in a dose-dependent manner”.
